One may read the EC50 as the concentration that produces a half-maximal response. One may read the IC50 as the concentration needed to halve the response being measured.

In test [1] the test system is ABCA1 gene. The experiment in a line: Quantitative analysis of ABCA1 gene regulation in THP-1 cells (real-time PCR). It counts as cell-based, human. To be noted: read-out: EC50 ABCA1. The protocol:
The compounds of formula (I) effect on the regulation of the ABCA1 gene was evaluated using the following procedure.
The THP-1 monocytic cell line (ATCC # TIB-202) was obtained from American Type Culture Collection (Manassas, Va.) and cultured in RPMI 1640 medium (Gibco, Carlsbad, Calif.) containing 10% FBS, 2 mM L-glutamine, and 55 uM beta-Mercaptoethanol (BME). […] Differentiated THP-1 cells were treated with test compounds or ligands dissolved in DMSO (Sigma, D-8779) in culture medium lacking phorbal ester. […] Unstimulated cells treated with vehicle were included as negative controls on each plate. An LXR agonist reference, N-(2,2,2-trifluoro-ethyl)-N-[4-(2,2,2-trifluoro-1-hydroxy-1-trifluoromethyl-ethyl)-phenyl]-benzenesulfonamide (Schultz, Joshua R., Genes & Development (2000), 14(22), 2831-2838), was dosed at 1.0 uM and served as a positive control. […] Results of antagonist analysis are expressed as % antagonism and IC50 (in μM).
Total cellular RNA was isolated from treated cells cultured in 96-well plates using PrepStation 6100 (Applied Biosystems, Foster City, Calif.), according to the manufacturer's recommendations. RNA was resuspended in ribonuclease-free water and stored at −70° C. prior to analysis. RNA concentrations were quantitated with RiboGreen test procedure, #R-11490 (Molecular Probes, Eugene, Oreg.).
Gene-specific mRNA quantitation was performed by real-time PCR with the Perkin Elmer Corp. chemistry on an ABI Prism 7700 Sequence detection system (Applied Biosystems, Foster City, Calif.) according to the manufacturer's instructions. Samples (50-100 ng) of total RNA were assayed in duplicate or triplicate in 50 μl reactions using one-step RT-PCR and the standard curve method to estimate specific mRNA concentrations. Sequences of gene-specific primer and probe sets were designed with Primer Express Software (Applied Biosystems, Foster City, Calif.). […] RT and PCR reactions were performed according to PE Applied Biosystem's protocol for Taqman Gold RT-PCR or Qiagen's protocol for Quantitect probe RT-PCR. Relative levels of ABCA1 mRNA are normalized using GAPDH mRNA or 18S rRNA probe/primer sets purchased commercially (Applied Biosystems, Foster City, Calif.).
Mean, standard deviation and statistical significance of duplicate evaluations of RNA samples were assessed using ANOVA, one-way analysis of variance using SAS analysis.
For orientation: Real-time PCR tracks product formation cycle by cycle.

The target in test [2] is T1, human LXRα (Homo sapiens, UniProt Q13133).
T1 construct: biotin (biotinylated); made in house; host or cells: E. coli (crude extract)
T1 sequence (Q13133 1-447): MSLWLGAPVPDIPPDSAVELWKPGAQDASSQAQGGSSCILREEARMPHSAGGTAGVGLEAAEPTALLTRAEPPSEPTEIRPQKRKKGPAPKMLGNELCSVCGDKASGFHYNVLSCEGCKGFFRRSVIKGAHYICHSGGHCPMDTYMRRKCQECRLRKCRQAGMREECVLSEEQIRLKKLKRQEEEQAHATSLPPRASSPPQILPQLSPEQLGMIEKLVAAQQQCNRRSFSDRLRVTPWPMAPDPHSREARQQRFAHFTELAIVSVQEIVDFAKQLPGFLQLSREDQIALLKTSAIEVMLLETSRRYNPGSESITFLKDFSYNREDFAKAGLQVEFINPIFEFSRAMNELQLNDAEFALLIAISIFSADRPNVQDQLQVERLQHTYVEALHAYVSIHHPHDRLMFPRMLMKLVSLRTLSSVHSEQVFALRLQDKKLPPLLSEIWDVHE
The experiment in a line: Ligand-binding test procedure for human LXRα (3H T0901317 tracer, flash plates). To be noted: biotinylated hLXRα, tracer 3H T0901317. The protocol:
Receptor source: E. coli extract from cells expressing biotinylated hLXRcc. Extract was made in a similar buffer as above, but with 50 mM TRIS.
Washed streptavidin and coated flash plates with wash buffer. Diluted receptor extract to give Bmax ˜4000 cpm and add to the wells. Wrapped the plates in aluminum foil and stored them at +4° C. over night.
(§1) Made a dilution series in DMSO of the test ligands. Made a 5 nM solution of the radioactive tracer in buffer. Mixed 250 μl diluted tracer with 5 μl of the test ligand from each concentration of the dilution series. Washed the receptor-coated flash plates. Added 200 μl per well of the ligand/radiolabel mixture to the receptor-coated flash plates. Wrapped the plates in aluminum foil and incubate at +4° C. over night.
Aspirated wells, and wash the flashed plates. Sealed the plate. Measured the remaining radioactivity in the plate.

Test [3] has as its target T2, human LXRβ (Homo sapiens, UniProt P55055).
T2 construct: biotin (biotinylated); made in house; host or cells: E. coli (crude extract)
T2 sequence (P55055 1-460): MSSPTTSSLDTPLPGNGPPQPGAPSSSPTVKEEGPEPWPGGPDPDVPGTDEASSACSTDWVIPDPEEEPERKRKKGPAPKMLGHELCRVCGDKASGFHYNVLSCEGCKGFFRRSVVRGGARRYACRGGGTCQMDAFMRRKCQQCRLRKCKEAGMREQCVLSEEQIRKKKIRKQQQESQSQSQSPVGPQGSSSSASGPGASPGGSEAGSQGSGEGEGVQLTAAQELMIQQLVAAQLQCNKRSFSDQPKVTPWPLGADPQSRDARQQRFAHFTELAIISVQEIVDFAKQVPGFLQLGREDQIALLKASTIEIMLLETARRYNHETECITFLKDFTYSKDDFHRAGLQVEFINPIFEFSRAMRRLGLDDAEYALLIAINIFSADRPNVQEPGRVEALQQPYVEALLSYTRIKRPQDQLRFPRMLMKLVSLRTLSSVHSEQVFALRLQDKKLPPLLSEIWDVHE
Put plainly: Ligand-binding test procedure for human LXRβ (3H T0901317 tracer, flash plates). The protocol:
Receptor source: E. coli extracted from cells expressing biotinylated hLXRβ. Extract was made in a similar buffer as above, but with 50 mM TRIS.
Washed streptavidin and coated flash plates with wash buffer. Diluted receptor extract to give Bmax ˜4000 cpm and add to the wells. Wrapped the plates in aluminum foil and stored them at +4° C. overnight.
as §1
Aspirated wells, and washed the flashed plates. Sealed the plate. Measured the remaining radioactivity in the plate.

The mark [4] stands for this setting: Gene regulation by LXR (Human), differentiated THP-1 cells, 18 hrs, ABCA1 mRNA.

Read-outs that look alike come from different tables or passages of the source.

On to `CCS(=O)(=O)c1cccc(Oc2cccc(-n3c(C)nc4c(C(F)(F)F)cccc43)c2)c1` [Example 5, 1-{3-[3-(ethylsulfonyl)phenoxy]phenyl}-2-methyl-4-(trifluoromethyl)-1H-benzimidazole], for which the EC50 in test [1] (setting [4]) came to 395 nM.
The same measure, in the same setting: for `Cc1nc2c(C(F)(F)F)cccc2n1-c1cccc(Oc2cccc(S(=O)(=O)C(C)C)c2)c1` [Example 6, 1-{3-[3-(isopropylsulfonyl)phenoxy]phenyl}-2-methyl-4-(trifluoromethyl)-1H-benzimidazole] the value was 710 nM; for `CCS(=O)(=O)c1cc(F)cc(Oc2cccc(-n3c(C)nc4c(C(F)(F)F)cccc43)c2)c1` [Example 7, 1-{3-[3-(ethylsulfonyl)-5-fluorophenoxy]phenyl}-2-methyl-4-(trifluoromethyl)-1H-benzimidazole], 1240 nM.
With `Cc1nc2c(C(F)(F)F)cccc2n1-c1cccc(Oc2cc(F)cc(S(C)(=O)=O)c2)c1` [Example 8, 1-{3-[3-fluoro-5-(methylsulfonyl)phenoxy]phenyl}-2-methyl-4-(trifluoromethyl)-1H-benzimidazole], the EC50 in test [1] (setting [4]) is 430 nM.
Consider `Cc1nc2c(C(F)(F)F)cccc2n1-c1cccc(Oc2cccc(S(=O)(=O)CCCO)c2)c1` [Example 9, 3-[(3-{3-[2-methyl-4-(trifluoromethyl)-1H-benzimidazol-1-yl]phenoxy}-phenyl)sulfonyl]propan-1-ol], for which the 50% effective concentration (EC50) in test [1] (setting [4]) worked out at 610 nM.
As to `CCCS(=O)(=O)c1cccc(Oc2cccc(-n3c(C)nc4c(C(F)(F)F)cccc43)c2)c1` [Example 10, 2-methyl-1-{3-[3-(propylsulfonyl)phenoxy]phenyl}-4-(trifluoromethyl)-1H-benzimidazole], the EC50 in test [1] (setting [4]) amounted to 620 nM.
Regarding `CS(=O)(=O)c1cccc(Oc2cccc(-n3cnc4c(C(F)(F)F)cccc43)c2)c1` [Example 25, 1-{3-[3-(methylsulfonyl)phenoxy]phenyl}-4-(trifluoromethyl)-1H-benzimidazole], the EC50 in test [1] (setting [4]) was found to be 907 nM.
Same read-out and setting: for `CCc1nc2c(C(F)(F)F)cccc2n1-c1cccc(Oc2cccc(S(C)(=O)=O)c2)c1` [Example 26, 2-ethyl-1-{3-[3-(methylsulfonyl)phenoxy]phenyl}-4-(trifluoromethyl)-1H-benzimidazole] the value was 140 nM.
For the compound `CCCc1nc2c(C(F)(F)F)cccc2n1-c1cccc(Oc2cccc(S(C)(=O)=O)c2)c1` [Example 27, 1-{3-[3-(methylsulfonyl)phenoxy]phenyl}-2-propyl-4-(trifluoromethyl)-1H-benzimidazole], the concentration giving a half-maximal response (EC50) in test [1] (setting [4]) came out at 22 nM. For the same compound, the values for the half-inhibitory concentration (IC50) in test [2] and in test [3] were 3.9 nM and 0.9 nM, respectively.
As for `CS(=O)(=O)c1cccc(Oc2cccc(-n3c(-c4ccccc4)nc4c(C(F)(F)F)cccc43)c2)c1` [Example 30, 1-{3-[3-(methylsulfonyl)phenoxy]phenyl}-2-phenyl-4-(trifluoromethyl)-1H-benzimidazole], in test [1] (setting [4]), the EC50 turned out to be 160 nM.
On to `CS(=O)(=O)c1cccc(Oc2cccc(-n3c(C4CC4)nc4c(C(F)(F)F)cccc43)c2)c1` [Example 31, 2-cyclopropyl-1-{3-[3-(methylsulfonyl)phenoxy]phenyl}-4-(trifluoromethyl)-1H-benzimidazole], for which the EC50 in test [1] (setting [4]) is 760 nM.
As for `CS(=O)(=O)c1cccc(Oc2cccc(-n3c(C(F)F)nc4c(C(F)(F)F)cccc43)c2)c1` [Example 33, 2-(difluoromethyl)-1-{3-[3-(methylsulfonyl)phenoxy]phenyl}-4-(trifluoromethyl)-1H-benzimidazole], the EC50 in test [1] (setting [4]) stood at 190 nM. In addition, the IC50 came to 36 nM in test [2] and 2 nM in test [3].
For the compound `Cc1nc2c(C(F)(F)F)cccc2n1-c1cccc(Oc2cccc(S(=O)(=O)CCCN)c2)c1` [Example 37, 3-[(3-{3-[2-methyl-4-(trifluoromethyl)-1H-benzimidazol-1-yl]phenoxy}phenyl)sulfonyl]propan-1-amine], the 50% effective concentration (EC50) in test [1] (setting [4]) came to 4700 nM. Moreover, the IC50 is 1470 nM in test [2] and 41 nM in test [3].
On the same counts, the results for `Cc1nc2c(C(F)(F)F)cccc2n1-c1cccc(Oc2cccc(S(=O)(=O)C3CC3)c2)c1` [Example 38, 1-{3-[3-(cyclopropylsulfonyl)phenoxy]phenyl}-2-methyl-4-(trifluoromethyl)-1H-benzimidazole] are 650 nM, 141 nM and 5.8 nM.
In the case of `Cc1nc2c(Cl)cccc2n1-c1cccc(Oc2cccc(S(C)(=O)=O)c2)c1` [Example 40, 4-chloro-2-methyl-1-{3-[3-(methylsulfonyl)phenoxy]phenyl}-1H-benzimidazole], in test [1] (setting [4]), the EC50 was 315 nM.
The same measure, in the same setting: for `CCS(=O)(=O)c1cccc(Oc2cccc(-n3c(C)nc4c(Cl)cccc43)c2)c1` [Example 41, 4-chloro-1-{3-[3-(ethylsulfonyl)phenoxy]phenyl}-2-methyl-1H-benzimidazole] the value was 745 nM; for `Cc1nc2c(Cl)cccc2n1-c1cccc(Oc2cccc(S(=O)(=O)C(F)(F)F)c2)c1` [Example 47, 4-chloro-2-methyl-1-(3-{3-[(trifluoromethyl)sulfonyl]phenoxy}phenyl)-1H-benzimidazole], 215 nM.
With `Cc1nc2c(Cl)cccc2n1-c1cccc(Oc2ccc(S(C)(=O)=O)cc2)c1` [Example 48, 4-chloro-2-methyl-1-{3-[4-(methylsulfonyl)phenoxy]phenyl}-1H-benzimidazole], the 50% effective concentration (EC50) in test [1] (Homo sapiens, THP-1, 18 h) was 1120 nM. The half-maximal inhibitory concentration (IC50) in test [2] came to 64 nM; in test [3], 6 nM.
Consider `CCS(=O)(=O)c1cccc(Oc2ccc(-n3c(C)nc4c(C(F)(F)F)cccc43)cc2)c1` [Example 65, 1-{4-[3-(ethylsulfonyl)phenoxy]phenyl}-2-methyl-4-(trifluoromethyl)-1H-benzimidazole], for which, in test [1] (setting [4]), the EC50 is 355 nM. In addition, the IC50 in test [2] stood at 7.2 nM; in test [3], 1.3 nM.
On the same counts, the results for `Cc1nc2c(C(F)(F)F)cccc2n1-c1ccc(Oc2cc(F)cc(S(C)(=O)=O)c2)cc1` [Example 66, 1-{4-[3-fluoro-5-(methylsulfonyl)phenoxy]phenyl}-2-methyl-4-(trifluoromethyl)-1H-benzimidazole] are 355 nM, 261 nM and 51 nM.

The values are drawn from patent US20110034526A1, “Benzimidazole Compounds” (Wyeth LLC, priority 2007, published 2011).
